Test results as given in ChEMBL document CHEMBL4052736, “Synthesis, antioxidant, antifungal, molecular docking and ADMET studies of some thiazolyl hydrazones” (Bioorg Med Chem Lett, 2017).
In brackets after ≈: the same amount, converted by molar mass.

Experiments:
Format in all cases: functional
[1] = Antioxidant activity assessed as DPPH free radical scavenging activity at 40 ug/ml after 15 mins by spectrophotometric method
[2] = Antioxidant activity assessed as DPPH free radical scavenging activity at 20 ug/ml after 15 mins by spectrophotometric method
Aspergillus flavus [3] = test: Antifungal activity against Aspergillus flavus assessed as zone of inhibition at 100 ug/ml measured after 24 hrs by well diffusion method; conditions: read-out: IZ
Aspergillus flavus [4] = test: Antifungal activity against Aspergillus flavus assessed as zone of inhibition at 50 ug/ml measured after 24 hrs by well diffusion method; conditions: read-out: IZ
[5] = Antioxidant activity assessed as H2O2 free radical scavenging activity by spectrophotometric analysis
[6] = Antioxidant activity assessed as DPPH free radical scavenging activity at 80 ug/ml after 15 mins by spectrophotometric method
Aspergillus niger [7] = test: Antifungal activity against Aspergillus niger assessed as zone of inhibition at 50 ug/ml measured after 24 hrs by well diffusion method; conditions: read-out: IZ
Aspergillus niger [8] = test: Antifungal activity against Aspergillus niger assessed as zone of inhibition at 25 ug/ml measured after 24 hrs by well diffusion method; conditions: read-out: IZ
[9] = Antioxidant activity assessed as H2O2 free radical scavenging activity at 20 ug/ml after 10 to 15 mins by spectrophotometric analysis
Aspergillus flavus [10] = test: Antifungal activity against Aspergillus flavus assessed as zone of inhibition at 25 ug/ml measured after 24 hrs by well diffusion method; conditions: read-out: IZ
[11] = Antioxidant activity assessed as H2O2 free radical scavenging activity at 80 ug/ml after 10 to 15 mins by spectrophotometric analysis
Candida albicans [12] = test: Antifungal activity against Candida albicans assessed as zone of inhibition at 100 ug/ml measured after 24 hrs by well diffusion method; conditions: read-out: IZ
[13] = Antioxidant activity assessed as H2O2 free radical scavenging activity at 40 ug/ml after 10 to 15 mins by spectrophotometric analysis
[14] = Antioxidant activity assessed as H2O2 free radical scavenging activity at 100 ug/ml after 10 to 15 mins by spectrophotometric analysis
[15] = Antioxidant activity assessed as DPPH free radical scavenging activity measured after 15 mins by spectrophotometric method
Candida albicans [16] = test: Antifungal activity against Candida albicans assessed as zone of inhibition at 50 ug/ml measured after 24 hrs by well diffusion method; conditions: read-out: IZ
Aspergillus flavus [17] = test: Antifungal activity against Aspergillus flavus after 24 hrs by well diffusion method
[18] = Antioxidant activity assessed as H2O2 free radical scavenging activity at 60 ug/ml after 10 to 15 mins by spectrophotometric analysis
Candida albicans [19] = test: Antifungal activity against Candida albicans after 24 hrs by well diffusion method
Candida albicans [20] = test: Antifungal activity against Candida albicans assessed as zone of inhibition at 25 ug/ml measured after 24 hrs by well diffusion method; conditions: read-out: IZ
[21] = Antioxidant activity assessed as DPPH free radical scavenging activity at 60 ug/ml after 15 mins by spectrophotometric method
[22] = Antioxidant activity assessed as DPPH free radical scavenging activity at 100 ug/ml after 15 mins by spectrophotometric method
Aspergillus niger [23] = test: Antifungal activity against Aspergillus niger assessed as zone of inhibition at 100 ug/ml measured after 24 hrs by well diffusion method; conditions: read-out: IZ
Aspergillus niger [24] = test: Antifungal activity against Aspergillus niger after 24 hrs by well diffusion method

Row | SMILES | inhibition [1] | inhibition [2] | zone of inhibition at 100 µg/mL (Aspergillus flavus [3]) | zone of inhibition at 50 µg/mL (Aspergillus flavus [4]) | IC50 [5] | inhibition [6] | zone of inhibition at 50 µg/mL (Aspergillus niger [7]) | zone of inhibition at 25 µg/mL (Aspergillus niger [8]) | inhibition [9] | zone of inhibition at 25 µg/mL (Aspergillus flavus [10]) | inhibition [11] | zone of inhibition at 100 µg/mL (Candida albicans [12]) | inhibition [13] | inhibition [14] | IC50 [15] | zone of inhibition at 50 µg/mL (Candida albicans [16]) | MIC (Aspergillus flavus [17]) | inhibition [18] | MIC (Candida albicans [19]) | zone of inhibition at 25 µg/mL (Candida albicans [20]) | also measured
1 | Clc1ccc(/C=N/Nc2nc(-c3ccccc3)cs2)c(Cl)c1 | 90.2% | 76.6% | 25 mm | 15 mm | 43.712 µg/mL (≈ 126 µM) | 92.6% | 10 mm | 8 mm | 78.1% | 12 mm | 83.1% | 15 mm | 78.9% | 87.4% | 29.307 µg/mL (≈ 84.2 µM) | 14 mm | < 3.12 µg/mL | 80.4% | 3.12 µg/mL (≈ 8.96 µM) | 12 mm | inhibition [21]: 92.8%; inhibition [22]: 95.8%; zone of inhibition at 100 µg/mL (Aspergillus niger [23]): 11 mm; MIC (Aspergillus niger [24]): 12.5 µg/mL (≈ 35.9 µM)
2 | Clc1ccc(-c2csc(N/N=C/c3ccc(Cl)cc3Cl)n2)cc1 | 85.9% | 73.9% | 16 mm | 15 mm | 43.537 µg/mL (≈ 114 µM) | 92.3% | 13 mm | 12 mm | 76% | 12 mm | 83.1% | 18 mm | 76.2% | 84.4% | 32.224 µg/mL (≈ 84.2 µM) | 15 mm | 6.25 µg/mL (≈ 16.3 µM) | 80.4% | 3.12 µg/mL (≈ 8.15 µM) | 10 mm | inhibition [21]: 88.9%; inhibition [22]: 92.4%; zone of inhibition at 100 µg/mL (Aspergillus niger [23]): 17 mm; MIC (Aspergillus niger [24]): 6.12 µg/mL (≈ 16 µM)
